Series [1] deals with Digitaria. Briefly: Microscreen, post-emergence herbicidal action (Example B3). The format is in vivo. To be noted: 250 g/ha, evaluated after 9 or 13 days, scale of eleven ratings (10=total damage, 0=no action). The procedure:
(§1) Example B3 Microscreen, Post-Emergence Herbicidal Action Monocotyledonous and dicotyledonous test plants are sown in sterilised standard soil in seed trays each having 96 cells. After 8 to 9 days' cultivation under controlled conditions in a climatic chamber (cultivation at 17/23° C.; 13 hours' light; 50-60% humidity; after application at 19/24° C.), the plants are treated with an aqueous spray solution of 1000 mg/l of the active ingredient used ([…]; incl. 10% DMSO as solvent). The plants are grown on in the climatic chamber until the test is evaluated after 9 or 13 days. The test is evaluated in accordance with a scale of eleven ratings (10=total damage, 0=no action). Ratings of from 10 to 7 (especially from 10 to 8) indicate very good to good herbicidal action.

Series [2] concerns Stellaria. Described as above. The format is in vivo. Conditions: 250 g/ha, evaluated after 9 or 13 days, scale of eleven ratings (10=total damage, 0=no action). The protocol:
as §1

Series [3] deals with Amaranthus. Described as above. The format is in vivo. Conditions: 250 g/ha, evaluated after 9 or 13 days, scale of eleven ratings (10=total damage, 0=no action). The procedure:
(§2) Example B3 Microscreen, Post-Emergence Herbicidal Action Monocotyledonous and dicotyledonous test plants are sown in sterilised standard soil in seed trays each having 96 cells. […] The plants are grown on in the climatic chamber until the test is evaluated after 9 or 13 days. The test is evaluated in accordance with a scale of eleven ratings (10=total damage, 0=no action). Ratings of from 10 to 7 (especially from 10 to 8) indicate very good to good herbicidal action.

Series [4] has as its system Nasturtium. Described as above. Conditions: 250 g/ha, evaluated after 9 or 13 days, scale of eleven ratings (10=total damage, 0=no action). The format is in vivo. The procedure: as §2
Series [5] concerns Solanum. The series is described as above. Conditions: 250 g/ha, evaluated after 9 or 13 days, scale of eleven ratings (10=total damage, 0=no action). The format is in vivo. The procedure:
as §2

In series [6] the test system is Sida. The experiment in a line: Comparison test with prior art compound A, post-emergence herbicidal action (Example B4). The format is in vivo. To be noted: 125 g/ha, rating scale 10=total damage, 0=no action. An excerpt:
(§3) The post-emergence herbicidal action of compound no. 1.095 according to the invention was compared with compound A, which is described as compound no.

Series [7] deals with Galium. The series is described as above. The format is in vivo. To be noted: 125 g/ha, rating scale 10=total damage, 0=no action.
Excerpt: as §3

For series [8], the system named is Sinapis. The series is described as above. The format is in vivo. Conditions: 125 g/ha, rating scale 10=total damage, 0=no action.
Excerpt: as §3

In series [9] the test system is Maize. Described as above. It counts as in vivo. To be noted: 125 g/ha, crop plant, rating scale 10=total damage, 0=no action.
Excerpt: as §3

For series [10], the system named is Amaranthus. The series is described as above. Conditions: 125 g/ha, rating scale 10=total damage, 0=no action. The format is in vivo.
Excerpt: as §3

The test system of series [11] is Stellaria. The description is as above. It counts as in vivo. Conditions: 125 g/ha, rating scale 10=total damage, 0=no action.
Excerpt: as §3

For series [12], the system named is Wheat. The description is as above. The format is in vivo. Conditions: 125 g/ha, crop plant, rating scale 10=total damage, 0=no action.
Excerpt: as §3

For series [13], the system named is Ipomea. The description is as above. It counts as in vivo. To be noted: 125 g/ha, rating scale 10=total damage, 0=no action.
Excerpt: as §3

In series [14] the test system is Sida. The experiment in a line: Comparison test with prior art compound B, post-emergence herbicidal action (Example B5). It counts as in vivo. Conditions: 125 g/ha, rating scale 10=total damage, 0=no action. From the text: (§4) The post-emergence herbicidal action of compound no. 1.096 according to the invention was compared with compound B, which is described as compound no. 2.088 on page 83,

Series [15] deals with Galium. The description is as above. It counts as in vivo. Conditions: 125 g/ha, rating scale 10=total damage, 0=no action.
Excerpt: as §4

Series [16] deals with Stellaria. Described as above. It counts as in vivo. Conditions: 125 g/ha, rating scale 10=total damage, 0=no action.
Excerpt: as §4

The subject of series [17] is Polygonum. Described as above. It counts as in vivo. To be noted: 125 g/ha, rating scale 10=total damage, 0=no action.
Excerpt: as §4

In series [18] the test system is Bromus. Described as above. Conditions: 125 g/ha, rating scale 10=total damage, 0=no action. It counts as in vivo.
Excerpt: as §4

Series [19] has as its system Ipomea. Described as above. Conditions: 125 g/ha, rating scale 10=total damage, 0=no action. It counts as in vivo.
Excerpt: as §4

For orientation: melting point means the temperature of the solid-liquid transition.

For the molecule `O=C1CCCC(O)=C1C(=O)c1ccc(C(F)(F)F)c(Cl)n1` [Compound 1.095], the “Digitaria, herbicidal action rating” value in [1] is reported as 3. In [2], the “Stellaria, herbicidal action rating” value came to 7. The “Amaranthus, herbicidal action rating” value in series [3] worked out at 7. Further, the “Nasturtium, herbicidal action rating” value in series [4] is recorded as 9. Also, the “Solanum, herbicidal action rating” value in series [5] is recorded as 7. Besides, in series [6], the “Post-emergence herbicidal action: Sida” value is reported as 5. The “Post-emergence herbicidal action: Galium” value in [7] worked out at 6. In series [8], the “Post-emergence herbicidal action: Sinapis” value amounted to 7. For the same molecule, the “Post-emergence herbicidal action: Maize” value in series [9] worked out at 0. For the same molecule, the “Post-emergence herbicidal action: Amaranthus” value in series [10] came out at 7. In addition, in [11], the “Post-emergence herbicidal action: Stellaria” value is on record as 8. Further, in series [12], the “Post-emergence herbicidal action: Wheat” value turned out to be 0. Further, the “Post-emergence herbicidal action: Ipomea” value in series [13] is 7.

In turn, `COc1nc(C(=O)C2=C(O)CCCC2=O)ccc1C(F)(F)F` [Compound 1.096] came in with a melting point of 80 to 81 °C. Further, the “Digitaria, herbicidal action rating” value in [1] stood at 8. Besides, the “Stellaria, herbicidal action rating” value in series [2] came out at 9. In addition, the “Amaranthus, herbicidal action rating” value in series [3] is 9. In series [4], the “Nasturtium, herbicidal action rating” value is given as 10. In series [5], the “Solanum, herbicidal action rating” value is listed as 9. Moreover, the “Post-emergence herbicidal action: Sida” value in [14] was found to be 7. Further, the “Post-emergence herbicidal action: Galium” value in [15] is recorded as 8. Moreover, the “Post-emergence herbicidal action: Stellaria” value in series [16] stood at 8. In series [17], the “Post-emergence herbicidal action: Polygonum” value came to 8. In series [18], the “Post-emergence herbicidal action: Bromus” value came out at 5. In addition, the “Post-emergence herbicidal action: Ipomea” value in series [19] came out at 7.

The values are drawn from patent publication US20070167631A1, “Novel herbicides” (priority 2003, published 2007).
